From patent US6783949B1, “Processes for determining whether a test substance contains lipases or lipase inhibitors” (Aventis Pharma Deutschland GmbH, priority 1999, dated 2004)
Like-named read-outs stand apart in the source and are kept apart here.

Tests used:
HSL = biological target: T1, HSL (Rattus norvegicus, UniProt P15304); experiment: PNPB assay; assay type: biochemical; conditions: Example 6, Table 6; n=5, mean±SD
T1 construct: The partially purified HSL can be stored at −70° C. for 4 to 6 weeks; from tissue; host or cells: rat epididymal fat cells (male Wistar rats)
T1 sequence (P15304 1-768 isoform P15304-2): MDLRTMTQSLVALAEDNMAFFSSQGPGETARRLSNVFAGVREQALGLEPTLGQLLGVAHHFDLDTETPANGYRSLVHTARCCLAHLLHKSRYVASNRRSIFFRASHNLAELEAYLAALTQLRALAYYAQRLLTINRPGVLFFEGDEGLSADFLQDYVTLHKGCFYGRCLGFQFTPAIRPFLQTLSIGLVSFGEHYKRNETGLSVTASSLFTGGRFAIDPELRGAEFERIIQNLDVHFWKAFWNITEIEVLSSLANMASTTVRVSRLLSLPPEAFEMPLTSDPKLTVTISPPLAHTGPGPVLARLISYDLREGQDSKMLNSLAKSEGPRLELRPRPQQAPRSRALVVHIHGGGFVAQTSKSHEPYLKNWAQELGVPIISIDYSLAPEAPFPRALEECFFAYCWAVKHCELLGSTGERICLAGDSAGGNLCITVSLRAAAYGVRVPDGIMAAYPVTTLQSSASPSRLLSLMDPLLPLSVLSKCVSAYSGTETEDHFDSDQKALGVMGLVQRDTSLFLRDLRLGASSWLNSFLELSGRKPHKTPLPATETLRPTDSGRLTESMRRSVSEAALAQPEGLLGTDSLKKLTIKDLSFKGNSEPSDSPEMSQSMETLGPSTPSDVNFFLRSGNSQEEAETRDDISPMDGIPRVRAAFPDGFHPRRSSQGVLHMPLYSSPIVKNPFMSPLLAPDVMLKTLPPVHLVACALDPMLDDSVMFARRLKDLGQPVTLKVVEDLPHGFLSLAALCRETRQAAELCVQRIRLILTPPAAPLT
Method: Isolated rat fat cells are obtained from epididymal fatty tissue from untreated male rats (Wistar, 220-250 g) by collagenase treatment according to published processes. The fat cells from 10 rats are washed three times by flotation with 50 ml each of homogenization buffer ([…], pH 7.4, 0.25 M sucrose, 1 mM ethylenediamine-N,N,N′,N′-tetraacetic acid (EDTA), 1 mM dithiothreitol (DTT), 10 μg/ml of leupeptin, 10 μg/ml of antipain, 20 μg/ml of pepstatin) and finally taken up in 10 ml of homogenization buffer. The fat cells are homogenized in a Teflon-in-glass homogenizer (Braun-Melsungen) by 10 strokes at 1500 rpm and 15° C. The homogenizate is centrifuged (Sorvall SM24 tubes, 5000 rpm, 10 min, 4° C.). […]
10 μl of p-nitrophenyl butyrate (PNPB)(2 mM in acetonitrile), 890 μl of 0.1 M KPi (pH 7.25), 0.9% NaCl, 1 mM DTT, and 100 μl of HSL (prepared as above, diluted in this buffer) are incubated at 37° C. for 10 min. […] An equivalent volume of the upper phase is then taken and the absorption is determined at 400 nm.
Substances are customarily tested in four independent batches. The inhibition of the enzymatic activity of the HSL by a test substance is determined by comparison with an uninhibited control reaction. The IC50 value is calculated by means of an inhibition curve using at least 10 concentrations of the test substance. […]

[1] = biological target: PC-specific phospholipase from Bacillus cereus (Bacillus cereus, UniProt P09598); assay type: biochemical; conditions: for Increase in the absorption at 481 nm: PLC, 60 min, NAG 0.05 mg/ml
PC-specific phospholipase from Bacillus cereus, sequence (P09598 39-283 limits assumed): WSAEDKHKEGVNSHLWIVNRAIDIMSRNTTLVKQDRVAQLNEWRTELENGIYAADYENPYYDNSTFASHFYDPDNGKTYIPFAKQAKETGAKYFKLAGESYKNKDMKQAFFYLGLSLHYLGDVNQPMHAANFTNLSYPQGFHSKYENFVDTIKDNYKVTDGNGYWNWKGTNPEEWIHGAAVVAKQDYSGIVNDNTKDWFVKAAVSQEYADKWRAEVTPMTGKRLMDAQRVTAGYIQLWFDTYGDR

O=C(CCCCCCCCCCCNc1ccc([N+](=O)[O-])c2nonc12)OCC(O)CO (racemic) [Compound 3]
IC50 (HSL): > 100 µM

O=C(CCCCCCCCCCCNc1ccc([N+](=O)[O-])c2nonc12)OCC(O)CO (stereo not drawn) [Compound (3)]
Increase in the absorption at 481 nm ([1]; enzyme 10 arb. units): 0 arb. units | Increase in the absorption at 481 nm ([1]; enzyme 20 arb. units): 1 ± 1 arb. units | Increase in the absorption at 481 nm ([1]; enzyme 50 arb. units): 2 ± 2 arb. units | Increase in the absorption at 481 nm ([1]; enzyme 75 arb. units): 2 ± 1 arb. units | Increase in the absorption at 481 nm ([1]; enzyme 100 arb. units): 3 ± 1 arb. units | Increase in the absorption at 481 nm ([1]; enzyme 150 arb. units): 3 ± 1 arb. units | Increase in the absorption at 481 nm ([1]; enzyme 200 arb. units): 5 ± 2 arb. units | Increase in the absorption at 481 nm ([1]; enzyme 250 arb. units): 5 ± 2 arb. units | Increase in the absorption at 481 nm ([1]; enzyme 300 arb. units): 7 ± 3 arb. units | Increase in the absorption at 481 nm ([1]; enzyme 400 arb. units): 10 ± 3 arb. units | Activity relative to HSL ([1]; bacterial PC-specific phospholipase, conditions optimized for HSL): virtually inactive
